How the values were obtained:
Type in all cases: biochemical, Medicago truncatula
MtHCT1 [1] = test system: T1, MtHCT1; assay: HPLC product assay, forward HCT reaction; details: 500 µM shikimic acid, 100 mM sodium phosphate pH 7.5, 500 µM DTT; kcat apparent
T1 construct: gene HCT1
Description: HPLC product assay, forward HCT reaction on MtHCT1

MtHCT2 [2] = test system: T2, MtHCT2; assay: HPLC product assay, forward HCT reaction; details: 500 µM shikimic acid, 100 mM sodium phosphate pH 7.5, 500 µM DTT; kcat apparent
T2 construct: gene HCT2
Description: HPLC product assay, forward HCT reaction on MtHCT2

MtHCT2 [3] = test system: T2, MtHCT2; assay: HPLC product assay, reverse HCT reaction; details: 500 µM CoA, 100 mM sodium phosphate pH 7.5, 500 µM DTT; kcat apparent; substrate tested 20 to 400 µM
Description: HPLC product assay, reverse HCT reaction on MtHCT2

MtHCT1 [4] = test system: T1, MtHCT1; assay: HPLC product assay, reverse HCT reaction; details: 500 µM CoA, 100 mM sodium phosphate pH 7.5, 500 µM DTT; kcat apparent; substrate tested 20 to 400 µM
Description: HPLC product assay, reverse HCT reaction on MtHCT1

SMILES	Km (MtHCT1 [1])	Km (MtHCT2 [2])	Km (MtHCT2 [3])	Km (MtHCT1 [4])
CC(C)(COP(=O)(O)OP(=O)(O)OC[C@H]1O[C@@H](n2cnc3c(N)ncnc32)[C@H](O)[C@@H]1OP(=O)(O)O)[C@@H](O)C(=O)NCCC(=O)NCCSC(=O)/C=C/c1ccc(O)cc1 [4-coumaroyl CoA]	40.6 µM	44.3 µM	–	–
O=C(/C=C/c1ccc(O)c(O)c1)O[C@@H]1CC(C(=O)O)=C[C@@H](O)[C@H]1O [caffeoyl shikimate]	–	–	139 µM	148 µM

From article PMC7913460, “Targeting hydroxycinnamoyl CoA: shikimate hydroxycinnamoyl transferase for lignin modification in Brachypodium distachyon” (Biotechnology for Biofuels, 2021)
